The values that follow come from patent US7276492B2, “Use of ACE inhibitors for treatment of patients suffering from behavioral disorders” (priority 2000, dated 2007).

Data set [1] deals with temper, rage and outburst behavior disorder (TROBD). Description: Example 1: lisinopril regimen in a patient suffering from TROBD. The class given is in vivo, human. The settings on record: for relief of TROBD by prior treatments: prior treatments of the same patient, before lisinopril. An excerpt: The TROBD was an endogenous behavioral disorder. […] When confined to their room, the patient would act out with banging and stomping. Episodes were accompanied by physiological changes including dilation of pupils, expressionless face and a rise in blood pressure.
With lisinopril medication as noted above over a period of about four weeks, definite changes in behavior were evident. […] At home, they retreated from a situation triggering the event to their room, where they remained quiet.
Each of the three episodes occurred at school. In one episode, the patient was working on a computer and refused to give up their work station when their allotted time had been used up. […] A second episode was triggered when the patient was asked to make up a class they had missed. They refused to go to the class but voluntarily moved themself to a “cooling room” to allow their temper to subside. They again, when so instructed, walked to the school office without being physically coerced. In a third episode, the patient was asked to leave the classroom because they would not stop talking during a quiet time. In this case, there was a limited degree of acting out in that, while sitting in a chair, they kicked a desk which was knocked over. They then allowed themself to be escorted by police officers to the school office without being physically coerced. In the office, they kicked another desk and was taken by ambulance to a children's hospital for evaluation.

For the next data set, the system named is central nervous system. The settings on record: of the persons treated; cited from earlier work.
Setting [2] is: under treatment, approximately two and one-half months.

Consider `COC(=O)C(c1ccccc1)C1CCCCN1` (stereo not shown) [methylphenidate], for which, in data set [1], the “relief of TROBD by prior treatments” value is given as “ineffective to provide adequate relief”.
Take `CCOC(=O)[C@H](CCc1ccccc1)N[C@@H](C)C(=O)N1Cc2cc(OC)c(OC)cc2C[C@H]1C(=O)O` [moexipril]: in the data set on central nervous system, the “incidence of mood change” value is “less than one”.
Regarding `C[C@H](N)Cc1ccccc1` [dextroamphetamine], the “relief of TROBD by prior treatments” value in data set [1] is “ineffective to provide adequate relief”.
Regarding `NCCCC[C@H](N[C@@H](CCc1ccccc1)C(=O)O)C(=O)N1CCC[C@H]1C(=O)O` [lisinopril], in data set [1] (lisinopril 10 mg per day oral, about four weeks), the “violent outburst during episodes” value was “without violent outburst”. In data set [1] (lisinopril 10 mg per day oral, about four weeks, prior to medication approximately twenty minutes per episode), the “duration of episodes of rage and/or violent behavior” value was “five to ten”. Further, the frequency of episodes result in data set [1] (lisinopril 10 mg per day oral, about four weeks, prior to medication two to four episodes per week) was “approximately one”. In data set [1] (setting [2]), the “blood pressure during the three most marked temper-related episodes” value is on record as 128/64, the “degree of violence in episodes compared to behavior prior to treatment” value is recorded as “significantly reduced” and the dilation of pupils result was “no noticeable dilation of pupils”.
`CCC(=O)O[C@@H](O[P@](=O)(CCCCc1ccccc1)CC(=O)N1C[C@H](C2CCCCC2)C[C@H]1C(=O)O)C(C)C` [fosinopril]: in the data set with central nervous system, the “incidence of behavior change” value is reported as “less than one”, the “incidence of memory disturbance” value is “less than one” and the “incidence of mood change” value is “less than one”.
Regarding `CCOC(=O)[C@H](CCc1ccccc1)N[C@@H](C)C(=O)N1CCC[C@H]1C(=O)O` [enalapril], the “incidence of dream abnormality” value in the data set on central nervous system is listed as “less than one”.
